Data published in US20250275993A1, “GLYCOSYLATION INHIBITORS AS THERAPEUTICS FOR STROKE” (The Regents of the University of California, priority 2022, published 2025).

How the values were obtained:
HUVEC = HUVEC migration assay; type: cell-based, human; conditions: 40 μM ManN alone
Description: HUVECs (passage 6-8) were cultured and serum-starved as described in “Western Blots”. Ten thousand cells in […] of EBM-2 medium were then added to the upper chamber of […] pore size cell culture inserts (Falcon) coated with 0.1% gelatin. The lower compartment was filled with […] EBM-2 medium containing various agents. The plates were incubated at 37° C. to allow migration. After 4 hrs, cells were fixed with 4% PFA for 20 min and then stained with crystal violet (Sigma-Aldrich) for 20 min at RT. Migrated cells on the bottom side of the insert membrane were quantified by counting whole area of the insert at 40× magnification. The experiments were carried out in triplicate and repeated three times. BCEC migration was set up similarly, except that wells were coated with FN, cells were suspended in 1% serum media and migration time was 18-24 hrs.

BCECs = experiment: Cellular uptake of ManN and conversion to ManN-6P (HPAEC-PAD); type: in vitro ADME, bovine
α-glucosidase = α-glucosidase activity assay; type: biochemical, Saccharomyces cerevisiae; conditions: up to 2 mM
Description: a-mannosidase activity was measured using substrate p-nitrophenyl α-mannopyranoside (1 mM). Enzyme from Jack Bean (M7257) (final concentration of 0.077 U) was incubated at 37° C. in a final volume of 50 μl of 50 mM potassium phosphate buffer, pH 7.5. α-glucosidase was assayed with substrate p-nitrophenyl a-glucoside (7 mM). Enzyme from Saccharomyces cerevisiae-type 1 (Sigma, G5003) (final concentration of 0.1 U) was incubated at 37° C. in a final volume of 50 μl of PBS, pH 7.5. β-Glucosidase was assayed with substrate 4-nitrophenyl β-D-glucopyranoside (Roche). Enzyme from almond (Sigma, G0395) (final concentration of 0.002 U) was incubated at 37° C. in a final volume of 50 μl of PBS, pH 7.5 […]. The incubation was stopped by addition of an equal volume of acid-based stop solution (R&D systems, 895032). Enzymatic activity was measured at 405 nm. α-glucosidase from Saccharomyces cerevisiae type I (G5003) with p-nitrophenyl α-D-glucopyranoside (Sigma, N1377) as the substrate.

[1] = tested on: N-linked glycans from BCECs; experiment: N-glycan analysis of BCECs; type: cell-based, bovine
Description: As soon as BCECs reached about 80% confluency, they were washed twice with phosphate buffered saline (PBS, Sigma) and harvested by scraping. The cells were pelleted by centrifugation at 300 g for 3 mins and washed once with cold PBS. Cells were homogenized and total protein was measured. All subsequent analysis was based on known protein amount.
N-linked glycans were removed from glycoprotein samples using PNGase-F kit (New England BioLabs, P0705S). Briefly, 300 μg of protein sample was reconstituted in 180 μl UltraPure water. 20 μl of 10× denaturing buffer was added and boiled using 100° C. water bath for 14 mins. Samples were cooled down to room temperature and centrifuged at 2700 g for 1 min. Subsequently, 50 μl 10×NP-40 was added and samples were kept at room temperature for 30 mins with vortexing at 5 min interval, followed by adding 25 μL of 10× reaction buffer and mixing thoroughly. 5 μl PNGaseF (2500 U) was then added to the samples and mixed gently. Samples were incubated at 37° C. for 16 hrs. Released N-glycans were purified using solid phase extraction method. […] The data was collected using the Dionex ICS-3000 HPLC system with Ultimate 3000 fluorescence detector (Dionex) set at Acx 330 nm at Atm 420 nm with sensitivity 7. […]

4T1 cells = experiment: 4T1 proliferation assay (MTS); type: cell-based
NIH3T3 fibroblasts = experiment: NIH3T3 proliferation assay; type: cell-based, mouse; conditions: alone or in combination with growth factors
Description: (§1) Proliferation assays with fibroblasts were done in low-glucose DMEM containing 1% FBS, with or without 10 ng/ml bFGF, or 100 ng/ml human EGF and the assay was ended at day 3. ARPE-19 cells were gently lifted with 0.025% trypsin and plated in RtEGM media (Clonetics) containing 2% FBS, L-glutamine, human bFGF and GA-1000. Once cells were attached to plates, serum-free RtEGM media was used to maintain the cultures. For proliferation assays, 1500 human RPE cells were plated into 96-well plates in low-glucose DMEM containing 1% FBS. A673, U87MG, Calu6 and AML12 cells were grown until confluent and were then harvested and re-suspended in appropriate assay media. For proliferation assays, cells were plated at the density of 1000-2000 cells/well in low-glucose DMEM containing 5% FBS or otherwise stated. Bovine pituitary cells (pituitary folliculostellate cells) were isolated as previously described. For proliferation assays with human epidermal keratinocytes, human DMVECs and human dermal fibroblast cells, 1000 cells/well were plated in low-glucose DMEM containing 1% FBS with or without various growth factors. The assay was ended at day 3 for bovine pituitary cells and at day 4 for all the other cell types. […] Four days later, tumor cell growth was measured by the MTS assay (Promega, Madison, WI), a colorimetric assay that measures metabolic activity of viable cells. […]

human keratinocytes = experiment: Human keratinocyte proliferation assay; type: cell-based
Description: as §1

N[C@H](C=O)[C@@H](O)[C@H](O)[C@H](O)CO [ManN, 2-Amino-2-deoxy-D-mannose]
HUVEC migration (HUVEC): stimulation of migration and wound closure | incorporation of ManN in N-glycans (BCECs; BCECs): No incorporation | ManN detected in cell lysate (BCECs; BCECs treated with 400 μM ManN for 2 hours): 0.66 nmol in 1 mg cell lysate | effect on α-glucosidase (α-glucosidase): No effect | Man-5 and Man-7 content ([1]; 40 μM ManN): significant early phase accumulation | Man-6, Man-8 and Man-9 in total oligomannose N-glycan content ([1]; 40 μM ManN vs untreated control): significant time-dependent reduction | toxicity on 4T1 cells (4T1 cells; 5 mM): significant toxicity | growth of 4T1 (4T1 cells; ManN, MTS): did not promote growth | proliferation of NIH3T3 cells (NIH3T3 fibroblasts): no increases in proliferation | sensitivity of human keratinocytes to ManN toxicity (human keratinocytes; 5 mM level of ManN): least sensitive ones | proliferation of human keratinocytes (human keratinocytes; alone or in combination with growth factors): no increases in proliferation
